{
  "source": "patent US20250304952A1",
  "about": "“DNA ELEMENT RESPONSIVE TO EXTRACHROMOSOMAL DNA IN CANCER CELLS” (The Board of Trustees of the Leland Stanford Junior …, priority 2021, published 2025)",
  "assay_type_in_all_cases": "cell-based, human",
  "key": {"[1]": {"test_system": "COLO320-HSR cells", "test": "PVT1 promoter-driven NanoLuc luciferase reporter in COLO320-HSR", "conditions": "JQ1 500 nM, 6 hours", "from_the_text": "We constructed a plasmid containing the 2 kb PVT1 promoter (chr8: 128,804,981-128,806,980, hg19) or the MYC promoter (chr8: 128,745,990-128,748,526, hg19) driving NanoLuc luciferase (PVT1p-nLuc) and a constitutive thymidine kinase (TK) promoter driving Firefly luciferase as an internal control (FIG. 3b). Briefly, pGL4-tk-luc2 (Promega) was digested with KpnI and PciI. A sequence containing multiple cloning sites ([…]), NanoLuc and BGH polyA sequence were inserted in tandem into the vector using Gibson assembly (NEBuilder DNA assembly mix). Next, the PVT1 promoter or the MYC promoter was inserted into the vector via NheI and SalI digestion to generate the final reporter construct. For the negative control, a minimal promoter ([…]) was used in place of the PVT1 promoter. For constructing plasmids with a cis-enhancer, an enhancer (chr8: 128347148-128348310, hg19; positive H3K27ac mark and looping to the PVT1 promoter in HiChIP, overlapping with BRD4 ChIP peak and ATAC-seq peak in COLO320-DM) was inserted directly 5′ to the promoter into the region with multiple cloning sites. […] Luciferase levels were quantified using Nano-Glo Dual reporter luciferase assay (Promega). The reporter level was calculated as the ratio of NanoLuc reading over firefly reading using Tecan M1000. Mean and standard errors were calculated based on three biological replicates with three technical replicate each."}, "[2]": {"test_system": "COLO320-DM cells and COLO320-HSR cells", "test": "JQ1 dose titration: cell viability (CellTiterGlo) and cell proliferation", "conditions": "viability 48 hours, proliferation over 72 hours", "protocol": "Cells were plated in 96-well plates at 25,000 cells/well in triplicate and incubated either with JQ1 (Sigma-Aldrich SML1524) at the indicated concentrations or an equivalent volume of DMSO for 48 hours. Cell viability was measured using the CellTiterGlo assay kit (Promega G7572) in triplicate with luminescence measured on SpectraMax M5 plate reader with an integration time of 1 second per well. Luminescence was normalized to the DMSO treated controls and p values calculated using a Student's t-test comparing biological triplicates.\nCells were plated in 96-well plates at 10,000 cells/well and incubated either with JQ1 (Sigma-Aldrich SML1524) at the indicated concentrations or an equivalent volume of DMSO. Every 24 hours, cells were harvested and counted on Countess 3 Automated Cell Counter (Thermo Fisher) with Trypan Blue used to assess cell viability. P values were calculated using a Student's t-test comparing biological triplicates."}, "[3]": {"test_system": "FGFR2 in SNU16", "test": "Oncogene RNA measured by RT-qPCR in SNU16 (FGFR2)", "conditions": "500 nM JQ1, 6 hours"}, "[4]": {"test_system": "ecDNA hubs in COLO320-DM", "test": "ecDNA clustering by interphase DNA FISH, autocorrelation g(r)", "conditions": "500 nM, 6 hours", "from_the_text": "The Oligopaint FISH probe libraries were constructed as described previously 51 Each oligo consists of a 40 nucleotide (nt) homology to the hg19 genome assemble designed from the algorithm developed from the laboratory of Dr. Ting Wu (https://oligopaints.hms.harvard.edu/). Each library subpool consists of a unique sets of primer pairs for orthogonal PCR amplification and a 20 nt T7 promoter sequence for in vitro transcription and a 20 nt region for reverse transcription. Individual Oligopaint probes were generated by PCR amplification, in vitro transcription, and reverse transcription, in which ssDNA oligos conjugated with ATTO488 and ATTO647 fluorophores were introduced during the reverse transcription step. The Oligopaint covered genomic regions (hg19) used in this study are as follows: chr8: 116967673-118566852 (hg19_COLO_nonecDNA_1.5Mbp), chr8: 127435083-129017969 (hg19_COLO_ecDNA_1.5Mbp), chr8: 128729248-128831223 (hg19_PC3_ecDNA1_100 kb). A ssDNA oligo pool was ordered and synthesized from Twist Bioscience (San Francisco, CA). 15 mm #1.5 round glass coverslips (Electron Microscopy Sciences) were pre-rinsed with anhydrous ethanol for 5 min, air dried, and coated with L-poly lysine solution (100 μg/mL) for at least 2 hours. Fully dissociated ColoDM320 or PC3 cells were seeded onto the coverslips and recovered for at least 6 hours before experiments. Cells were fixed with 4% (v/v) methanol free paraformaldehyde diluted in 1×PBS at room temperature for 10 min. Then cells were washed 2× with 1×PBS and permeabilized in 0.5% Triton-X100 in 1×PBS for 30 min. After 2× wash in 1×PBS, cells were treated with 0.1M HCl for 5 min, followed by 3× washes with 2×SSC and 30 min incubation in 2×SSC+0.1% Tween20 (2×SSCT)+50% (v/v) formamide (EMD Millipore, cat #S4117). […]\nTo analyze the clustering of ecDNAs, we applied the autocorrelation function as described previously58 in Matlab (2019). g(r) estimates the probability of detecting another ecDNA signal at increasing distances from the viewpoint of an index ecDNA signal and is equal to 1 for a uniform, random distribution. Specifically, the pair auto-correlation function g(r^→) was calculated by the fast Fourier transform (FFT) method described by the equations below.\nN(r^→) is the auto-correlation of a mask matrix that has the value of 1 inside the nucleus used for normalization. […] Autocorrelation functions were calculated first by converting the Cartesian coordinates to polar coordinates by Matlab cart2pol( ) function, binning by radius and by averaging within the assigned bins. […]"}},
  "data": [
    {"smiles": "Cc1sc2c(c1C)C(c1ccc(Cl)cc1)=N[C@@H](CC(=O)OC(C)(C)C)c1nnc(C)n1-2", "note": "[JQ1]", "values": [
      {"measurement": "repression of PVT1p-mediated transcription", "setting": "[1]", "result": "~2", "unit": "fold"},
      {"measurement": "cell killing, COLO320-DM versus COLO320-HSR", "setting": "[2]", "result": "modest preferential killing of COLO320-DM cells over HSR cells"},
      {"measurement": "ecDNA-derived transcription of FGFR2", "setting": "[3]", "result": "reduced"},
      {"measurement": "ecDNA hub clustering (interphase DNA FISH, autocorrelation g(r))", "setting": "[4]", "result": "dispersed ecDNA hubs"}
    ]}
  ]
}
